Results from patent US20250163047A1, “HETEROCYCLIC COMPOUNDS, COMPOSITIONS THEREOF, AND METHODS OF TREATMENT THEREWITH” (BeiGene, Ltd., priority 2022, published 2025).

Assays:
Cbl-b (aa36-427) = biological target: T1, Cbl-b (aa36-427) (Homo sapiens, UniProt Q13191); experiment: Co-expressed Cbl-b with BirA biochemical assay (CBLB/E2-Ub binding, HTRF); settings: 0.6 nM Cbl-b co-expressed with BirA, HTRF; read-out: co-express CBLB/E2-Ub-binding assay IC50
T1 construct: Cbl-b (aa36-427, in-house); made in house
Text: (§1) The assay in the absence of a Cbl-b/Cbl inhibitor, where phosphorylation of Cbl-b/Cbl by the Src kinase allows UbcH5B-Ub to bind to Cbl-b/Cbl and brings the Bodipy-Fluorescein tagged ubiquitin in proximity to the streptavidin-terbium bound to the N-terminal biotinylated Avi-tagged Cbl-b/Cbl. […] The lack of a FRET signal indicates Cbl-b/Cbl is inhibited by the Cbl-b/Cbl inhibitor.

Cbl (aa49-434) = biological target: T2, Cbl (aa49-434) (Homo sapiens, UniProt P22681); experiment: Co-expressed Cbl with BirA biochemical assay (CBL/E2-Ub binding, HTRF); settings: 0.6 nM Cbl co-expressed with BirA, read-out: co-express CBL/E2-Ub-binding assay IC50
T2 construct: Cbl (aa49-434, in-house); made in house
T2 sequence (P22681 49-434): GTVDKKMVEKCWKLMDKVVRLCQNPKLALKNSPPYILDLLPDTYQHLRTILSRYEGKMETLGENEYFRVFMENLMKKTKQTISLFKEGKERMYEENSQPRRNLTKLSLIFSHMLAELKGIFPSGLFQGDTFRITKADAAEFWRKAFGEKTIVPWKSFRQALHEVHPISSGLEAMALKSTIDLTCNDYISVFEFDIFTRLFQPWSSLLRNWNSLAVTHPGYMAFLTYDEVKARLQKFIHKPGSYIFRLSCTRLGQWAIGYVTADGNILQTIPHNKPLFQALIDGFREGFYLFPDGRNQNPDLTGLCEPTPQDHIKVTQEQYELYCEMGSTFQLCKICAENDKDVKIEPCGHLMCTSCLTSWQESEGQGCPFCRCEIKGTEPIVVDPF
Text: as §1

T1 sequence (Q13191 36-427): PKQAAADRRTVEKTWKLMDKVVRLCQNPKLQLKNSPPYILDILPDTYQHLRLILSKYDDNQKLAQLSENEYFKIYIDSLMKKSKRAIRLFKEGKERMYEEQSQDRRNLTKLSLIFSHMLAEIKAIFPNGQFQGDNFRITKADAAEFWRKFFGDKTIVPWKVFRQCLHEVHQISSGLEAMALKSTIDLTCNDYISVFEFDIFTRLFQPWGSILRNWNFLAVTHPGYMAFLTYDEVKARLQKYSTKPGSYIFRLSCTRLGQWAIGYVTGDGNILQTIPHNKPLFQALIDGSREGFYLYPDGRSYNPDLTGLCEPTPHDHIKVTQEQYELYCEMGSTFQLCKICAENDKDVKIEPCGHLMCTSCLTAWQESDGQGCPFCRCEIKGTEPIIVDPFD

Row | IC50 (Cbl-b (aa36-427)) | IC50 (Cbl (aa49-434)) | SMILES
1 | 2.3 nM | 25 nM | C[C@H](NCc1cc(C(=O)Nc2cccc([C@]3(c4nncn4C)C[C@@H](CC#N)C3)c2)nc2c1OCC2(C)C)C1CC1 [Compound C26, N-(3-((1s,3R)-3-(cyanomethyl)-1-(4-methyl-4H-1,2,4-triazol-3-yl)cyclobutyl)phenyl)-7-((((S)-1-cyclopropylethyl)amino)methyl)-3,3-dimethyl-2,3-dihydrofuro[3,2-b]pyridine-5-carboxamide]
2 | 1.1 nM | 1.9 nM | C[C@@H]1CN(Cc2cc(C(=O)Nc3cccc([C@]4(c5nncn5C)C[C@@H](C)C4)c3)nc3c2CCC3(C)C)CC[C@@H]1F [Compound C55, 4-(((3R,4S)-4-fluoro-3-methylpiperidin-1-yl)methyl)-7,7-dimethyl-N-(3-((1s,3S)-3-methyl-1-(4-methyl-4H-1,2,4-triazol-3-yl)cyclobutyl)phenyl)-6,7-dihydro-5H-cyclopenta[b]pyridine-2-carboxamide]
3 | 0.9 nM | 2.4 nM | Cn1cnnc1[C@]1(c2cccc(NC(=O)c3cc(CNCC4(C)CCC4)c4c(n3)C(C)(C)CC4)c2)C[C@H](CC#N)C1 [Compound C37, N-(3-((1s, 3s)-3-(cyanomethyl)-1-(4-methyl-4H-1,2,4-triazol-3-yl)cyclobutyl)phenyl)-7,7-dimethyl-4-((((1-methylcyclobutyl)methyl)amino)methyl)-6,7-dihydro-5H-cyclopenta[b]pyridine-2-carboxamide]
4 | 1.8 nM | 17.7 nM | Cn1cnnc1[C@]1(c2cccc(NC(=O)c3cc(CNC4(C)CCC4)c4c(n3)C(C)(C)CN4)c2)C[C@H](CC#N)C1 [Compound C21, N-(3-((1s, 3s)-3-(cyanomethyl)-1-(4-methyl-4H-1,2,4-triazol-3-yl)cyclobutyl)phenyl)-3,3-dimethyl-7-(((1-methylcyclobutyl)amino)methyl)-2,3-dihydro-1H-pyrrolo[3,2-b]pyridine-5-carboxamido]
5 | 0.8 nM | 2.9 nM | C[C@H](NCc1cc(C(=O)Nc2cccc([C@]3(c4nncn4C)C[C@@H](CC#N)C3)c2)nc2c1CCC2(C)C)C1CC1 [Compound C39, N-(3-((1s,3R)-3-(cyanomethyl)-1-(4-methyl-4H-1,2,4-triazol-3-yl)cyclobutyl)phenyl)-4-((((S)-1-cyclopropylethyl)amino)methyl)-7,7-dimethyl-6,7-dihydro-5H-cyclopenta[b]pyridine-2-carboxamide]

More lines, now with the values behind:

Row | SMILES | IC50 (Cbl-b (aa36-427)) | IC50 (Cbl (aa49-434))
6 | Cn1cnnc1[C@]1(c2cccc(NC(=O)c3cc(CNC4(C)CC4)c4[nH]ccc4n3)c2)C[C@H](CC#N)C1 [Compound B26, N-(3-((1s, 3s)-3-(cyanomethyl)-1-(4-methyl-4H-1,2,4-triazol-3-yl)cyclobutyl)phenyl)-7-(((1-methylcyclopropyl)amino)methyl)-1H-pyrrolo[3,2-b]pyridine-5-carboxamide] | 1.3 nM | 4.1 nM
7 | Cn1cnnc1[C@]1(c2cccc(NC(=O)c3cc(CN[C@H]4CCC(F)(F)C4)c4[nH]ccc4n3)c2)C[C@H](CC#N)C1 [Compound B17, N-(3-((1s,3S)-3-(cyanomethyl)-1-(4-methyl-4H-1,2,4-triazol-3-yl)cyclobutyl)phenyl)-7-((((R)-3,3-difluorocyclopentyl)amino)methyl)-1H-pyrrolo[3,2-b]pyridine-5-carboxamide] | 1.22 nM | 3.84 nM
8 | Cc1cnc2c(C(=O)Nc3cncc([C@]4(c5nncn5C)C[C@@H](C)C4)c3)cc(CNCC3CCC3)cn12 [Compound A56, 6-{[(cyclobutylmethyl)amino]methyl}-3-methyl-N-{5-[(1r, 3s)-3-methyl-1-(4-methyl-1,2,4-triazol-3-yl)cyclobutyl]pyridin-3-yl}imidazo[1,2-a]pyridine-8-carboxamide] | 1.5 nM | 4.1 nM
9 | C[C@H](NCc1cc(C(=O)Nc2cccc([C@]3(Cc4nncn4C)C[C@@H](C#N)C3)c2)c2nccn2c1)C1CCCC1 [Compound A33, N-(3-((1r,3S)-3-cyano-1-((4-methyl-4H-1,2,4-triazol-3-yl)methyl)cyclobutyl)phenyl)-6-((((S)-1-cyclopentylethyl)amino)methyl)imidazo[1,2-a]pyridine-8-carboxamide] | 1.5 nM | 1.1 nM
10 | Cn1cnnc1[C@]1(c2cccc(NC(=O)c3cc(CNC4(C)CC4)cn4ccnc34)c2)C[C@H](CC#N)C1 [Compound A25, N-(3-((1s, 3s)-3-(cyanomethyl)-1-(4-methyl-4H-1,2,4-triazol-3-yl)cyclobutyl)phenyl)-6-(((1-methylcyclopropyl)amino)methyl)imidazo[1,2-a]pyridine-8-carboxamide] | 1.5 nM | 10.5 nM
11 | Cn1cnnc1[C@]1(c2cncc(NC(=O)c3cc(CNC4(C)CC4)cc4c(F)cnn34)c2)C[C@H](C)C1 [Compound A93, 3-fluoro-N-(5-((1s, 3s)-3-methyl-1-(4-methyl-4H-1,2,4-triazol-3-yl)cyclobutyl)pyridin-3-yl)-5-(((1-methylcyclopropyl)amino)methyl)pyrazolo[1,5-a]pyridine-7-carboxamide] | 1.6 nM | 5.2 nM
12 | C[C@H](NCc1cc(C(=O)Nc2cccc([C@]3(c4nncn4C)C[C@@H](CC#N)C3)c2)c2nccn2c1)C1CCC1 [Compound A38, N-(3-((1s,3R)-3-(cyanomethyl)-1-(4-methyl-4H-1,2,4-triazol-3-yl)cyclobutyl)phenyl)-6-((((S)-1-cyclobutylethyl)amino)methyl)imidazo[1,2-a]pyridine-8-carboxamide] | 1.4 nM | 2.4 nM
13 | C[C@H]1CCCN(Cc2cc(C(=O)Nc3cccc([C@]4(c5nncn5C)C[C@@H](CC#N)C4)c3)nc3c(Cl)c[nH]c23)C1 [Compound B16, 3-chloro-N-(3-((1s,3R)-3-(cyanomethyl)-1-(4-methyl-4H-1,2,4-triazol-3-yl)cyclobutyl)phenyl)-7-(((S)-3-methylpiperidin-1-yl)methyl)-1H-pyrrolo[3,2-b]pyridine-5-carboxamide] | 1.7 nM | 16.1 nM
14 | C[C@H]1CCCN(Cc2cc(C(=O)Nc3cccc([C@]4(c5nncn5C)C[C@@H](CC#N)C4)c3)nc3cc[nH]c23)C1 [Compound B5, N-(3-((1s,3R)-3-(cyanomethyl)-1-(4-methyl-4H-1,2,4-triazol-3-yl)cyclobutyl)phenyl)-7-(((S)-3-methylpiperidin-1-yl)methyl)-1H-pyrrolo[3,2-b]pyridine-5-carboxamide] | 1.6 nM | 16 nM
15 | Cn1cnnc1[C@]1(c2cccc(NC(=O)c3cc(CNC4(C)CCC4)cn4ccnc34)c2)C[C@H](C)C1 [Compound A39, N-(3-((1s, 3s)-3-methyl-1-(4-methyl-4H-1,2,4-triazol-3-yl)cyclobutyl)phenyl)-6-(((1-methylcyclobutyl)amino)methyl)imidazo[1,2-a]pyridine-8-carboxamide] | 2.7 nM | 14.1 nM
16 | C[C@H](NCc1cc(C(=O)Nc2cncc([C@]3(c4nncn4C)C[C@@H](C)C3)c2)c2ncc(F)n2c1)C1CC1 [Compound A72, 6-({[(1S)-1-cyclopropylethyl]amino}methyl)-3-fluoro-N-{5-[(1r, 3s)-3-methyl-1-(4-methyl-1,2,4-triazol-3-yl)cyclobutyl]pyridin-3-yl}imidazo[1,2-a]pyridine-8-carboxamide] | 0.4 nM | 0.6 nM
